Entries after “also recorded” stand apart in the source; their conditions may differ.
Experiments:
Assay type in all cases: in vivo, human (patient-derived), mouse host
[1] = system: primary duodenal cancer cells; experiment: method of the present invention, drug screening on primary duodenal cancer cells from a patient; settings: primary tumor tissue of duodenal ampullary tumor patient, FIG. 9
Description: 4 to 5-week old female Nu/Nu mice was ordered from the supplier (purchased from Beijing Vital River Laboratory Animal Technology Co., Ltd.) and raised in SPF grade animal room. Before the experiment, the animal was adapted for at least three days. Freshly collected tumor samples obtained from surgery or from mouse PDX models containing tumor cells from patient were kept in a storage tube and transported to the laboratory on ice in the shortest possible time. After removing the non-tumor tissues and necrotic tissues in the biosafety cabinet, the tumor samples were cut into cubes of 1-3 mm^2, rinsed with HBSS. […] Collected cell suspension and centrifuged the suspension at 1000 rpm for 3 minutes to remove supernatant, and re-suspended in PBS containing 1% PBS; counted cell numbers and adjusted cell density to 1×10^8/ml. […] Counted the number of cells, and adjusted the cell density to 1-10×10^5/ml. […] 5-14 day after administration, the mice were killed and cell viability was detected by quantitative analysis of ATP by CellTiter-Glo luminescence in the modified polyvinylidene fluoride tubes. According to the viability of tumor cells in the control group, the percentages of cell viable proliferation (t/c %) in the experiment groups were calculated, and then the efficacy of the corresponding drugs was evaluated. […] The viability of the tumor cells was measured.

[2] = system: patient-derived gastric cancer cells in GAPF155; experiment: traditional PDX method, mouse PDX model GAPF155; settings: FIG. 2
Excerpt: (§1) The PDX model well maintains the biological characteristics the of primary tumor cells of a patient. The model is obtained by transplanting a fresh tumor tissue of a patient into an immune deficient mouse (e.g. a nude mouse or a severe combined immune deficiency (SCID) mouse). Such models maintain the genetic characteristics of the patient as well as tumor heterogeneity. Presently, the major difficulty of using PDX model for individualized precision medical treatment is the lengthy time period spent on modelling and sensitivity test, and the low success rate for modelling. For example, primary cell transplantation takes 2-3 months, and the drug sensitivity test takes 3-4 months. In addition, PDX modelling requires a high level of technical skills. Surgeons, histologists and researchers need to cooperate closely after the tumor sample is obtained from the patient. Therefore, how to improve the method for determining the sensitivity of tumor cells to an anti-tumor drug by using a PDX model becomes an urgent issue. The method for PDX mouse modelling is known in the art. […] The sensitivity of the patient-derived gastric cancer cells in GAPF155 to S-1 was detected by the traditional PDX method and the method of the present invention (FIG. 2 and FIG. 3).

[3] = system: patient-derived gastric cancer cells in GAPF155; experiment: method of the present invention (implanted PVDF tube, CellTiter-Glo ATP viability), GAPF155 cells; settings: FIG. 3
Description: (§2) The viability of the tumor cells was measured. Mouse PDX model GAPF155 was obtained by implanting primary gastric cancer cells into mice. After 2 months of feeding, patient-derived gastric cancer cells were obtained from GAPF155. The sensitivity of the patient-derived gastric cancer cells in GAPF155 to S-1 was detected by the traditional PDX method and the method of the present invention (FIG. 2 and FIG. 3).

[4] = system: patient-derived gastric cancer cells from GAPF157; experiment: traditional PDX method, mouse PDX model GAPF157; settings: FIG. 4
Excerpt: as §1, with “(FIG. 4” for “(FIG. 2”, “FIG. 5).” for “FIG. 3).”

[5] = system: patient-derived gastric cancer cells from GAPF157; experiment: method of the present invention (implanted PVDF tube, CellTiter-Glo ATP viability), GAPF157 cells; settings: FIG. 5
Description: as §2, with “model […]” for “model GAPF155”, “from GAPF157.” for “from GAPF155.”, “(FIG. 4” for “(FIG. 2”, “FIG. 5).” for “FIG. 3).”

| Molecule | response to drug in drug screening [1] | sensitivity of the tumor cells to the drug / anti-tumor activity [2] | sensitivity of the tumor cells to the drug / anti-tumor activity [3] | sensitivity of the tumor cells to the drug / anti-tumor activity [4] | sensitivity of the tumor cells to the drug / anti-tumor activity [5] |
| --- | --- | --- | --- | --- | --- |
| Nc1ccn([C@@H]2O[C@H](CO)[C@@H](O)C2(F)F)c(=O)n1 [gemcitabine] | well responded | – | – | – | – |
| Tegafur [S-1] | – | sensitive; also recorded: good anti-tumor activity | sensitive; also recorded: good anti-tumor activity | sensitive; also recorded: good anti-tumor activity | sensitive; also recorded: good anti-tumor activity |

— US20250093330A1, “METHOD AND DEVICE FOR DRUG SCREENING” (SHANGHAI LIDE BIOTECH CO., LTD., priority 2021, published 2025)
